Among the test systems are A498; BT-549; CAKI-1; DU-145; HCC 2998; HCT-116; HL-60; HT-29; K562; M14; MDA-MB-231; MDA-N; NCI-H23; PC-3; RXF 393; SF-295; SK-MEL-5; SW-620; SF-539.
What all share (test): inhibition of tumour cell growth, NCI panel, 48 h

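Compound exposure: 48 hours, 5 concentrations, 96-well plates. GI50 marks 50% less growth.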 Calls of active or inactive are those of the source. Rule as the data show it: active = GI50 up to about 1.1 µM and inactive = higher. Where a SMILES comes first, the peptide text is derived from it. Where only a bound is given, the exact number is not on record here.

The source of these data is ChEMBL document CHEMBL1201862, “PubChem BioAssay data set” (2004).

`Cn1cnc([N+](=O)[O-])c1Sc1nc(N)nc2c1ncn2Cc1ccccc1`: the GI50 was 25 µM (inactive) in the experiment with A498; 22.1 µM (inactive) in the experiment on BT-549; 13.3 µM (inactive) in the experiment with CAKI-1; 20.8 µM (inactive) with DU-145; 15.9 µM (inactive) in the experiment with HCC 2998; 20.7 µM (inactive) with HCT-116. In addition, the GI50 is 18.9 µM (inactive) in the experiment on HL-60; 22.5 µM (inactive) in the experiment on HT-29; 20.5 µM (inactive) in the experiment on K562; 22.9 µM (inactive) in the experiment with M14; 19.7 µM (inactive) in the experiment on MDA-MB-231; 19.4 µM (inactive) in the experiment on MDA-N. Moreover, the GI50 with NCI-H23 is 19.2 µM (inactive); in the experiment on PC-3, 11.6 µM (inactive); in the experiment with RXF 393, 19.5 µM (inactive); in the experiment with SF-295 it was 44.9 µM (inactive); in the experiment with SK-MEL-5 it was 19 µM (inactive); with SW-620 it was 22.9 µM (inactive).
For `COc1ccc2c(c1)c(=O)c1c(NCCCN(C)CCCNc3ccc4c(=O)n(CCN(C)C)c(=O)n5c6ccc(OC)cc6c(=O)c3c45)ccc3c(=O)n(CCN(C)C)c(=O)n2c31`, the GI50 in the experiment with A498 was 0.305 µM (active); in the experiment with BT-549, 0.259 µM (active); with CAKI-1, < 0.015 µM (active); in the experiment with DU-145, < 0.012 µM (active); with HCC 2998, < 0.01 µM (active); in the experiment with HCT-116 it was < 0.01 µM (active). The GI50 is 0.0914 µM (active) in the experiment on HL-60; < 0.01 µM (active) in the experiment with HT-29; < 0.01 µM (active) in the experiment with K562; 0.594 µM (active) in the experiment with M14; 0.0614 µM (active) in the experiment with MDA-MB-231; 0.17 µM (active) in the experiment with MDA-N. The GI50 in the experiment with NCI-H23 is < 0.0324 µM (active); in the experiment with PC-3, < 0.0147 µM (active); in the experiment on RXF 393, < 0.0202 µM (active); with SF-295 it was < 0.0169 µM (active); with SF-539 it was 0.08 µM (active); with SW-620 it was < 0.01 µM (active).
With `Nc1nc(N)c2nnn(C[C@H]3CC[C@@H](CO)C3)c2n1`, the GI50 in the experiment on A498, in the experiment with BT-549, with CAKI-1, with DU-145, in the experiment with HCC 2998 and in the experiment with HCT-116 was > 100 µM (inactive) each time. In addition, the GI50 in the experiment with HL-60, in the experiment on HT-29, with K562, in the experiment with M14, with MDA-MB-231 and in the experiment on MDA-N was > 100 µM (inactive) in each case. For the same compound, the GI50 in the experiment with NCI-H23, in the experiment with PC-3, with RXF 393, in the experiment on SF-295, in the experiment on SF-539 and in the experiment on SW-620 was > 100 µM (inactive) throughout.
`N#Cc1c(N)c(C#N)c2c(c1-c1ccc(Cl)cc1)COc1ccccc1-2`: the GI50 in the experiment on A498 is 18.2 µM (inactive); in the experiment on BT-549, 29.9 µM (inactive); with DU-145, 21.6 µM (inactive); with HCC 2998, 17.4 µM (inactive); in the experiment with HCT-116, 12.2 µM (inactive); in the experiment on HL-60, 25.4 µM (inactive). In addition, the GI50 in the experiment with HT-29 is 13.2 µM (inactive); in the experiment on K562 it was 16.5 µM (inactive); with M14 it was 38.6 µM (inactive); with MDA-MB-231, 24.2 µM (inactive); in the experiment with MDA-N, 18.5 µM (inactive); in the experiment on NCI-H23, 16.7 µM (inactive). Also, the GI50 with PC-3 was 16.8 µM (inactive); with RXF 393, 15.4 µM (inactive); with SF-539, 18.5 µM (inactive); in the experiment with SK-MEL-5, 22 µM (inactive); with SW-620, 32.6 µM (inactive).
On to `N/C(=N\Nc1ccc(Cl)cc1)c1cnccn1`, for which the GI50 was > 100 µM (inactive) in the experiment with A498; > 100 µM (inactive) with BT-549; > 100 µM (inactive) in the experiment with CAKI-1; > 100 µM (inactive) in the experiment on DU-145; 22.9 µM (inactive) in the experiment on HCC 2998; 22.4 µM (inactive) in the experiment with HCT-116. Besides, the GI50 in the experiment with HL-60 was 3.48 µM (inactive); with HT-29, 32.3 µM (inactive); in the experiment with K562 it was 3.85 µM (inactive); with M14 it was 6.64 µM (inactive); in the experiment with MDA-MB-231 it was > 100 µM (inactive); in the experiment on MDA-N, 10.4 µM (inactive). Besides, the GI50 with NCI-H23 is > 100 µM (inactive); in the experiment on PC-3, 54.7 µM (inactive); with RXF 393 it was > 100 µM (inactive); with SF-295, 13.2 µM (inactive); in the experiment with SK-MEL-5 it was 21.1 µM (inactive); with SW-620, > 100 µM (inactive).
For `CC(C)C(/C=C/c1ccc(Cl)c(Cl)c1)=N\NC(=O)N/N=C(/C=C/c1ccc(Cl)c(Cl)c1)C(C)C`, the GI50 is > 100 µM (inactive) in the experiment with A498; > 100 µM (inactive) with BT-549; > 100 µM (inactive) with CAKI-1; > 100 µM (inactive) in the experiment with DU-145; > 100 µM (inactive) with HCC 2998; 80 µM (inactive) with HL-60. The GI50 in the experiment with HT-29, with K562, with M14, with MDA-MB-231, in the experiment with MDA-N and in the experiment on NCI-H23 was > 100 µM (inactive) each time. The GI50 in the experiment with PC-3, with SF-295, in the experiment on SF-539, in the experiment with SK-MEL-5 and in the experiment with SW-620 was > 100 µM (inactive) each time.
In the case of `N#CC(NNC(=O)c1c(Cl)c(Cl)c(Cl)c(Cl)c1-c1nc2cc(C(=O)c3ccccc3)ccc2[nH]1)c1cccc(Oc2ccccc2)c1` (stereo not drawn), the GI50 in the experiment with A498 was 20.8 µM (inactive); in the experiment on BT-549, 19.1 µM (inactive); with CAKI-1 it was 35.2 µM (inactive); in the experiment on DU-145, 28.3 µM (inactive); in the experiment on HCT-116, 29.6 µM (inactive); with HL-60, 28.3 µM (inactive). Besides, the GI50 was 27.4 µM (inactive) in the experiment with HT-29; 27.5 µM (inactive) with K562; 25.6 µM (inactive) in the experiment with M14; 19 µM (inactive) in the experiment on MDA-MB-231; 15.4 µM (inactive) in the experiment on MDA-N; 26.4 µM (inactive) in the experiment with NCI-H23. Further, the GI50 was 18.8 µM (inactive) with PC-3; 16.9 µM (inactive) in the experiment with RXF 393; 28.5 µM (inactive) in the experiment on SF-295; 20.7 µM (inactive) with SF-539; 15.4 µM (inactive) in the experiment on SK-MEL-5; 27.7 µM (inactive) in the experiment with SW-620.
As to `CCOC(=O)C1(C(=O)OCC)Nc2cccnc2N(C)N1`, the GI50 was 17.5 µM (inactive) in the experiment on A498; 67.3 µM (inactive) with BT-549; 19 µM (inactive) in the experiment on CAKI-1; 18.7 µM (inactive) in the experiment with DU-145; 18.8 µM (inactive) in the experiment with HCT-116; 22.8 µM (inactive) with HL-60. In addition, the GI50 with HT-29 is 14.7 µM (inactive); in the experiment with K562 it was 22.8 µM (inactive); in the experiment on M14, 19.3 µM (inactive); in the experiment with MDA-MB-231, 20.2 µM (inactive); in the experiment on MDA-N it was 17.5 µM (inactive); in the experiment with NCI-H23, 20.5 µM (inactive). Moreover, the GI50 with PC-3 is 22.8 µM (inactive); in the experiment with RXF 393, 18 µM (inactive); with SF-295, > 100 µM (inactive); with SF-539, 16.6 µM (inactive); with SK-MEL-5, 17.4 µM (inactive); in the experiment on SW-620, 11.1 µM (inactive).
For `COc1nc(SC)nc2c1C(O)n1c(nc3ccccc31)S2` (stereo not drawn), the GI50 in the experiment on A498 was 16.3 µM (inactive); in the experiment with BT-549 it was 28.1 µM (inactive); with CAKI-1, 41.3 µM (inactive); with DU-145, 53.7 µM (inactive); in the experiment with HCC 2998, 6.79 µM (inactive); in the experiment with HCT-116 it was 11.5 µM (inactive). The GI50 with HL-60 is 12.3 µM (inactive); in the experiment on HT-29, 35.9 µM (inactive); in the experiment with K562, 13.7 µM (inactive); in the experiment on M14, 60.4 µM (inactive); in the experiment with MDA-MB-231, 14.4 µM (inactive); with MDA-N it was 40.4 µM (inactive). Besides, the GI50 is 19.5 µM (inactive) with NCI-H23, 19.3 µM (inactive) with PC-3, 20.7 µM (inactive) with SF-295 and 9.14 µM (inactive) with SW-620.
Take `O=[N+]([O-])c1ccc2c3c1[C@@H]1O[C@@H]1c1cccc(c1-3)[C@@H]1O[C@H]21`: the GI50 was 3.23 µM (inactive) with A498; 6.11 µM (inactive) in the experiment with BT-549; 1.61 µM (inactive) in the experiment with CAKI-1; 3.1 µM (inactive) in the experiment with DU-145; 2.42 µM (inactive) in the experiment with HCT-116; 3.1 µM (inactive) in the experiment on HL-60. Also, the GI50 in the experiment on HT-29 was 3.48 µM (inactive); in the experiment on K562, 4.2 µM (inactive); with M14, 3.24 µM (inactive); in the experiment on MDA-MB-231, 6.44 µM (inactive); with MDA-N, 3.04 µM (inactive); in the experiment on NCI-H23, 3.94 µM (inactive). The GI50 is 7.91 µM (inactive) with PC-3; 4.17 µM (inactive) in the experiment on RXF 393; 11 µM (inactive) with SF-295; 2.02 µM (inactive) in the experiment on SF-539; 10.7 µM (inactive) with SK-MEL-5; 2.72 µM (inactive) with SW-620.
As for `CC(C)CC(NC(=O)C(Cc1ccccc1)NC(=O)C(Cc1c[nH]c2ccccc12)NC(=O)CNC(=O)C(N)Cc1ccc(O)cc1)C(=O)O` (stereo not drawn) (H-YGWFL-OH; configuration not given here), the GI50 with A498 was 32.3 µM (inactive); with BT-549, > 100 µM (inactive); in the experiment on CAKI-1, 34.9 µM (inactive); in the experiment with DU-145 it was 31.8 µM (inactive); in the experiment with HCC 2998, 34.3 µM (inactive); with HCT-116 it was 27.4 µM (inactive). For the same compound, the GI50 with HL-60 is 24.3 µM (inactive); in the experiment with HT-29, 30.8 µM (inactive); in the experiment on M14, 47.6 µM (inactive); with MDA-MB-231 it was 52.1 µM (inactive); in the experiment on MDA-N it was 35.4 µM (inactive); in the experiment on NCI-H23, 30.1 µM (inactive). For the same compound, the GI50 is 44.7 µM (inactive) with PC-3; 40.3 µM (inactive) with RXF 393; 49.7 µM (inactive) with SF-295; 33.8 µM (inactive) with SF-539; 29 µM (inactive) with SK-MEL-5.
